For assay [1], the system named is Echinococcus granulosus. The assay is described as follows: Parasiticidal activity against Echinococcus granulosus protoscolices assessed as death rate at 1 uM incubated for 48 hrs by eosin exclusion test. In kind it is functional.
Assay [2] has as its system Echinococcus granulosus. Put plainly: Parasiticidal activity against Echinococcus granulosus protoscolices […] by eosin exclusion test. The assay is classed as functional. The settings on record: 1152 h, time 48 day.

Activity calls are given as the source filed them. The rule behind the calls is not given here.

As to `COc1ccccc1-c1nc(C(=O)Nc2ccc(CN3CCC(N4CCCCC4)CC3)cc2)cc2c1[nH]c1ccccc12`, in assay [1], the result was Active. The LC50 in assay [2] was found to be 13.4 µM.

Take `COc1cccc(-c2nc(NC(=O)c3ccc(CN4CCCN(C)CC4)cc3)cc3c2[nH]c2ccccc23)c1`: the median lethal concentration (LC50) in assay [2] was determined as 17.9 µM.

Consider `COc1cc(OC)cc(-c2nc(C(=O)Nc3ccc(CN4CCC(N5CCCCC5)CC4)cc3)cc3c2[nH]c2ccccc23)c1`, for which the outcome in assay [1] was Active. The compound also returned an LC50 in assay [2] of 7.16 µM.

With `COc1ccc(-c2nc(C(=O)Nc3ccc(CN4CCC(N5CCCCC5)CC4)cc3)cc3c2[nH]c2ccccc23)c(OC)c1`, the outcome in assay [1] was Active. This compound showed an LC50 in assay [2] of 13 µM.

For `COc1ccc(-c2nc(NC(=O)c3ccc(CN4CCCN(C)CC4)cc3)cc3c2[nH]c2ccccc23)cc1OC`, the result in assay [1] was Active. In assay [2], this compound gave a 50% lethal concentration (LC50) of 13.2 µM.

Consider `Cc1ccc(-c2nc(NC(=O)c3ccc(CN4CCC(N5CCCCC5)CC4)cc3)cc3c2[nH]c2ccccc23)cc1`, for which, in assay [1], the result was Active. Moreover, the 50% lethal concentration (LC50) in assay [2] was 12.5 µM.

As for `COc1cccc(-c2nc(C(=O)Nc3ccc(CN4CCC(N5CCCCC5)CC4)cc3)cc3c2[nH]c2ccccc23)c1`, the outcome in assay [1] was Active. Further, the LC50 in assay [2] is 18.1 µM.

The values are drawn from ChEMBL document CHEMBL5344429, “1,3-Substituted β-Carboline Derivatives as Potent Chemotherapy for the Treatment of Cystic Echinococcosis” (J Med Chem, 2023).
